Reference: patent US20140004223A1, “MOUTH-MOISTENING GUM COMPOSITIONS AND PRODUCTS CONTAINING THE SAME” (Three Parkway North, priority 2010, published 2014)

Tests used:
[1] = taste testing of synthetic compound versus plant extracts; format: in vivo; details: based on taste testing, compared with some comparable plant extracts
Description: Synthetic (2E,5Z,8E)-deca-2,6,8-trienoic acid N-isobutyl amide, being more pure than botanical sources, can be distinguished to some extent based on taste sensations. Synthetic (2E,5Z,8E)-deca-2,6,8-trienoic acid N-isobutyl amide can have a purity of at least about 90 percent. In some embodiments, synthetic (2E,5Z,8E)-deca-2,6,8-trienoic acid N-isobutyl amide can provide relatively higher mouth-moistening relative to tingling or heating/cooling sensations, compared to, for example, equivalent amounts of spilanthol in jambu. […] In one embodiment a combination of synthetic (2E,5Z,8E)-deca-2,6,8-trienoic acid N-isobutyl amide and a affinin plant extract is used. For example, within the given range of 75 to 300 ppm the affinin compound, the amount of affinin active provided by synthetic (2E,5Z,8E)-deca-2,6,8-trienoic acid N-isobutyl amide can vary from 20 to 80 wt. % and the amount of (2E,5Z,8E)-deca-2,6,8-trienoic acid N-isobutyl amide provided by plant extract of Heliopsis Longipes can vary from 80 to 20 wt. %.

water solubility = format: physicochemical
Description: In some embodiments, one or more ingredients may be encapsulated with an encapsulating material can also modify the release profile of the ingredient.

- water solubility (water solubility): not water soluble
Compound: C/C=C/C=C\CC/C=C/C(=O)NCC(C)C [affinin compound, (2E,5Z,8E)-deca-2,6,8-trienoic acid N-isobutyl amide]
- taste profile / tingling [1]: a cleaner profile and/or less tingling
